Results reported in US11077126B2 (priority 2017, dated 2021).
Marks after values point to notes of the source that are not given here.

Legend:
[1] = tested on: transplanted tumor of human lymphoma U937 cells; experiment: Human lymphoma in nude mice model; settings: 30 mg/kg i.g. 30 d
Protocol: (§1) U937 cells in a logarithmic growth phase were taken and subjected to a trypan blue exclusion experiment showing that the cell viability was more than 95%, then the cells were subjected to trypsinization, centrifugation, and supernatant removal. Then cell concentration was adjusted to 1×10^7/ml with matrigel, and then each nude mouse was inoculated subcutaneously with 0.2 ml of cells at its right armpit and recorded as the first day of inoculation. […] Each group was continuously administered intragastrically for 30 days with a dose of 20 ml/kg. The mice were sacrificed the next day after drug withdrawal and the indicators were tested. The long diameter and short diameter of the tumor, and the body weight of each mouse were recorded every 3 days from drug administration to nude mouse sacrifice.
(§2) The body weight of the nude mice and the long diameter (a) and short diameter (b) of the transplanted tumor were measured every 3 days, and the tumor volume (v), relative tumor volume (RTV) and relative tumor proliferation rate (T/C) are calculated respectively according to the following formulas, wherein V=a×b^2/2; RTV=V/V0 (V0 is the tumor volume before administration, V is the tumor volume before sacrifice), and T/C (%)=treatment group RTV/model control group RTV×100%.
(§3) Each mouse was weighed and sacrificed. After the tumor was completely stripped off from the body of the mouse, the non-tumor tissues such as blood stains and fat were removed to weigh the tumor and calculate the tumor growth inhibition rate. The average tumor weight of each group of mice is used as an indicator of efficacy. Tumor growth inhibition rate (%)=(1−the average tumor weight of the treatment group/the average tumor weight of the model group)×100%.

[2] = tested on: transplanted tumor of human renal cell adenocarcinoma 769-P cells; experiment: Human renal cell adenocarcinoma in nude mice model; settings: 769-P nude mice; 30 mg/kg i.g. 30 d
Protocol: as §1, with “Then” for “U937 cells in a logarithmic growth phase were taken and subjected to a trypan blue exclusion experiment showing that the cell viability was more than 95%, then the cells were subjected to trypsinization, centrifugation, and supernatant removal. Then”, “of” for “of the”
as §2, §3

[3] = tested on: transplanted tumor of human glioma U251 cells; experiment: Human glioma in nude mice model; settings: 30 mg/kg i.g. 30 d
Protocol: (§4) Then matrigel cell concentration was adjusted to 1×10^7/ml with matrigel, and then each nude mouse was inoculated subcutaneously with 0.2 ml of cells at its right armpit and recorded as the first day of inoculation. […] Each group was continuously administered intragastrically for 30 days with a dose of 20 ml/kg. The mice were sacrificed the next day after drug withdrawal and the indicators were tested. The long diameter and short diameter of tumor, and the body weight of each mouse were recorded every 3 days from drug administration to nude mouse sacrifice.
as §2, §3

[4] = tested on: transplanted tumor of human gastric adenocarcinoma SGC7901 cells; experiment: Human gastric adenocarcinoma in nude mice model; settings: 30 mg/kg
Protocol: as §4, with “Then cell concentration” for “Then matrigel cell concentration”, “diameter of the tumor, and” for “diameter of tumor, and”
as §2, §3

[5] = tested on: thymus and spleen of Lewis lung cancer tumor-bearing mice; experiment: Thymus index and spleen index of Lewis lung cancer tumor-bearing mice; format: in vivo, C57BL/6 mouse
Protocol: After the tumor-bearing mice are sacrificed, the spleen and thymus are weighed, and the spleen index and thymus index are calculated.

[6] = tested on: NK cell activity of spleen cells against K562 cells; experiment: Natural killer (NK) cell activity of Lewis lung cancer tumor-bearing mice; format: in vivo, C57BL/6 mouse
Protocol: The serum-free RPMI 1640 medium was placed in a dish, and then the dish was placed on ice. The spleen was aseptically taken and gently ground with a sterile glass slide to prepare a single cell suspension. The single cell suspension was filtered with a double-layer sterile gauze, washed twice with serum-free RPMI 1640 medium, and centrifuged at 1,500 rpm for 5 min to remove the obtained supernatant. 2 mL of red blood cell lysate was added to the treated suspension, the mixture was allowed to stand for 2 min, and then 8 mL of RPMI 1640 medium was added, centrifuging was performed at 1,500 rpm for 5 min to remove the obtained supernatant, and then washing was performed twice with the RPMI 1640 medium. Trypan blue staining was performed to count the number of live cells, and the cell viability was more than 95%. […]
The spleen cell suspension was taken, and the cell density was adjusted to 1×10^7/mL (effector cells). […] Each mouse was set with: A. effector cells:target cell well (quantity ratio 20:1) to which 20 μL of spleen cell suspension and 100 μL of K562 cell suspension were added; B. an effector cell control well, to which 100 μL of spleen cell suspension and 100 μL of RPMI 1640 medium were added; and C. a target cell control well, to which 100 μL of K562 cell suspension and 100 μL of RPMI 1640 medium were added. […]

[7] = 26 mg/kg, positive drug group, n = 6

Structure (SMILES): O=P1(N(CCCl)CCCl)NCCCO1 (stereo not shown) [Cyclophosphamide]
- Body Weight (g)(d1) [1]: 19.79 ± 0.86 g
- Body Weight (g)(d30) [1]: 18.85 ± 0.62 g
- Inhibition Rate (%) [1]: 78.40%
- Relative Tumor Proliferation Rate(T/C) [1]: 34.30%
- Relative Tumor Volume (RTV) [1]: 6.37 ± 0.94
- Tumor Volume (mm^3) (d1) [1]: 139.58 ± 11.25 mm^3
- Tumor Volume (mm^3) (d30) [1]: 889.72 ± 59.73*** mm^3
- Tumor Weight [1]: 0.38 ± 0.16 g
- Body Weight (g)(d1) [2]: 22.48 ± 0.91 g
- Body Weight (g)(d30) [2]: 21.28 ± 0.39 g
- Inhibition Rate (%) [2]: 76.09%
- Relative Tumor Proliferation Rate(T/C) [2]: 19.68%
- Relative Tumor Volume (RTV) [2]: 4.19 ± 1.29
- Tumor Volume (mm3) (d1) [2]: 178.48 ± 28.78 mm3
- Tumor Volume (mm3) (d30) [2]: 747.83 ± 138.57 mm3
- Tumor Weight [2]: 0.61 ± 0.15 g
- Body Weight (g)(d1) [3]: 22.24 ± 1.53 g
- Body Weight (g)(d30) [3]: 19.92 ± 1.68 g
- Inhibition Rate (%) [3]: 79.74%
- Relative Tumor Proliferation Rate(T/C) [3]: 56.84%
- Relative Tumor Volume (RTV) [3]: 5.75 ± 1.22
- Tumor Volume (mm3) (d1) [3]: 98.40 ± 25.25 mm3
- Tumor Volume (mm3) (d30) [3]: 566.33 ± 39.32 mm3
- Tumor Weight [3]: 0.42 ± 0.10 g
- Relative Tumor Proliferation Rate(T/C) [4]: 48.83%
- Relative Tumor Volume (RTV) [4]: 7.86 ± 3.23
- Tumor Weight [4]: 0.71 ± 0.08 g
- Inhibition Rate (%) ([4]; by tumor weight): 70.97%
- Body Weight (g)(d1) ([4]; d1): 21.80 ± 1.96 g
- Tumor Volume (mm3) (d1) ([4]; d1): 102.45 ± 9.52 mm3
- Body Weight (g)(d30) ([4]; d30): 20.25 ± 1.57 g
- Tumor Volume (mm3) (d30) ([4]; d30): 799.74 ± 82.25 mm3
- Spleen Index (%) [5, 7]: 0.41 ± 0.12 %
- Thymus Index (%) [5, 7]: 0.12 ± 0.09%
- spleen index compared with the control group ([5]; Lewis lung cancer tumor-bearing mice, cyclophosphamide, P<0.01): significantly lower
- NK Cell Activity (%) ([6]; 26 mg/kg, n = 6): 25.4 ± 6.6 %
- NK cell activity compared with the control group ([6]; cyclophosphamide, P<0.05): significantly lower
